The values below come from patent US5503988A, “Process for producing a cholesterol-reduced substance” (priority 1992, dated 1996).

Where two headings read alike, the source gives them in different places.

Test [1] concerns cholesterol oxidase from Botrytis cinerea CO-33. The class given is biochemical. How it is done:
To 0.1 ml of 1 mM cholesterol micelle solution containing 0,33% Triton X-100 is added 0.3 ml of 20 mM phosphate/citrate buffer (pH 6.0), 0.05 ml of the enzyme solution is added to the mixture, and the reaction is carried out at 37° C. for 10 minutes. 0.05 ml of chloroform is added thereto to extract sterol, stopping the reaction.
Cholestenone in the reaction mixture is determined with a TLC/FID IATROSCAN (product to Diayatron Co.). […] The enzyme activity which produces 1 μmol of cholestenone per minute is defined as 1 unit.

The subject of test [2] is epicholesterol dehydrogenase from Mycobacterium sp. EPI-40. Format: biochemical. How it is done:
With 0.1 ml of a 1 mM epicholesterol micelle solution containing 0.33% Triton X-100 are mixed 0.3 ml of 20 mM Tris-HCl buffer (pH 8.0) containing 1 mM dithiothreitol, 0.1 ml of a 10 mM NAD solution, and 0.01 ml of 50 mM magnesium chloride. 0.05 ml of the enzyme solution is added to the mixture, and the mixture is allowed to stand at 37° C. for 2 hours. 0.05 ml of chloroform is added and sterol is extracted to stop the reaction.
Cholestenone produced in the reaction mixture is determined with high performance liquid chromatography. A quantitative determination is made using an ODS column (Inertsil ODS-2 column, 4.6×250 mm, product of GL Science Co.), using methanol as the mobile phase. […] The enzyme activity which produces 1 μmol of cholestenone per minute is defined as 1 unit.

With `O=C(O)CI` [iodoacetic acid], the “residual activity (activity without inhibitor defined as 100%)” value is recorded as 89% in test [1] (pH 6) and 67% in test [2] (pH 8).
In the case of `O=S(=O)(O)c1cc[c]([Hg][Cl])cc1` [p-chloromercury phenylsulfonate], the “residual activity (activity without inhibitor defined as 100%)” value is 100% in test [1] (1 mM inhibitor added, reaction for 10 minutes at pH 6.0, 37° C.) and 7% in test [2] (1 mM inhibitor added, allowed to stand 2 hours at pH 8.0, 37° C.).
As to `O=C(O)CN(CCN(CC(=O)O)CC(=O)O)CC(=O)O` [ethylenediamine tetraacetate], the “residual activity (activity without inhibitor defined as 100%)” value in test [1] (pH 6) is 93%; in test [2] (pH 8), 71%.
